Data: patent US20220218725A1, “METHODS AND MATERIALS FOR TREATING CANCER” (Mayo Foundation for Medical Education and Research, priority 2019, published 2022)
One block for each compound: values may come before it.

What was measured:
OCI-Ly1 cells = assay: Cell viability, Annexin V/PI assay (also IC50 and combination index)
Experimental: To assess apoptosis and cellular proliferation, all cell lines were treated with CRM 1 inhibitors (concentration ranging from 0.05-2 μM) and salicylates at concentrations ranging from (0.001-10 mM) for 48 hours before analysis was performed. DMSO was used to substitute the drug in controls.
After 48 hours incubation, cells were washed with Annexin buffer solution and stained with both propidium iodide (PI) and FITC-Annexin V (Life Technologies), and assayed on a BD Accuri flow cytometer (BD Biosciences). Apoptosis results were analyzed with BD CellQuest software. […]
Jeko-1 and OCI-Ly1 cell lines were used to assess the IC50. […] Relative IC50 was calculated as described elsewhere (see, e.g., Sebaugh et al., Pharmaceutical statistics 10:128-134 (2011)). The combination index was calculated as described elsewhere (see, e.g., Chou et al., Cancer Res 70:440-446 (2010)).

Hs 578T cells = assay: Cell viability, Annexin V/PI assay; type: cell-based; details: Hs 578T (Breast cancer); 48 hours; KPT-330 0.1-1.0 μM, CS 1-3 mM, single agent or combination
Experimental: KPT-330 purchased from Selleckchem (cat no: S7252) was dissolved in DMSO while CS (Santa Cruz, Calif.S 2016-36-6), sodium salicylate (Sigma-Aldrich, cat no: S3007), acetyl salicylate (Sigma-Aldrich, cat no: CAS 50-78-2) was diluted in PBS. […] The concentration range of KPT-330 was 0.05-1.0 μM while CS was 1-3 mM were used for ex vivo treatment and incubation time ranged from 24 hours to 72 hours.
The viability assessment for cell lines and primary patients samples were conducted with the Annexin V/PI method.

[1] = test system: CLL primary patient samples; assay: Viability of primary patient samples, Annexin V/PI assay; type: cell-based, human; details: TP53 deleted, 48 h, KPT-330 0.05-0.5 μM, CS 1-3 mM
Description: (§1) Primary patient samples were obtained. The mononuclear cells were obtained from bone marrow, spleen, peripheral blood and lymph nodes as follows. Freshly obtained tissue (lymph node, spleen, bone marrow) was placed in mesh screen and using a syringe plunger, the tissue was pressed into a petri dish. Samples were then rinsed through the screen using measured amounts of RPMI until all tissue has been pressed through. […] Subsequently the mononuclear cells were isolated via centrifugation in the presence of ficoll and this step was again repeated following washing the cells with RPMI media.
(§2) To isolate peripheral blood mononuclear cells (PBMCs), freshly obtained patient blood sample of patients were centrifuged in the present of ficoll and this step was repeated twice following washing the cells with PBS. Following isolating the mononuclear cells, the viability was assessed and ascertained proper viability above 80% prior to conduct respective experiments. Non-malignant cells were confirmed not to have a malignant condition by pathology review of the tissue.

[2] = test system: DLBCL primary patient samples; assay: as above; type: cell-based, human; details: 48 h, KPT-330 0.05-0.5 μM, CS 1-3 mM
Description: as §1, §2

[3] = test system: Lymphoplasmacytic lymphoma primary patient sample; assay: as above; type: cell-based, human; details: Lymphoplasmacytic lymphoma with IgG monoclonal gammopathy; 48 h; KPT-330 0.05-0.5 μM, CS 1-3 mM
Description: as §1, §2

[4] = test system: MCL primary patient samples; assay: as above; type: cell-based, human; details: 48 h, KPT-330 0.05-0.5 μM, CS 1-3 mM
Description: as §1, §2

[5] = test system: MM/plasma cell leukemia primary patient samples; assay: as above; type: cell-based, human; details: 48 h, KPT-330 0.05-0.5 μM, CS 1-3 mM
Description: as §1, §2

[6] = test system: MZL primary patient samples; assay: as above; type: cell-based, human; details: 48 h, KPT-330 0.05-0.5 μM, CS 1-3 mM
Description: as §1, §2

[7] = test system: Peripheral T-cell lymphoma primary patient samples; assay: as above; type: cell-based, human; details: 48 h, KPT-330 0.05-0.5 μM, CS 1-3 mM
Description: as §1, §2

[8] = test system: T-cell Lymphoblastic leukemia primary patient sample; assay: as above; type: cell-based, human; details: Relapsed T-cell Lymphoblastic leukemia; 48 h; KPT-330 0.05-0.5 μM, CS 1-3 mM
Description: as §1, §2

[9] = test system: WM primary patient sample; assay: as above; type: cell-based, human; details: 48 h, KPT-330 0.05-0.5 μM, CS 1-3 mM
Description: as §1, §2

[10] = Relapsed CLL: Ibrutinib and Idalalisib resistant
[11] = Relapsed CLL: Ibrutinib resistent
[12] = Double expresser transformed from CLL/SLL
[13] = Double hit, replaced from RCHOP, ASCT and BR
[14] = NOS, single agent or combination
[15] = Relapsed MCL resistant to Ibrutinib
[16] = Kappa light chain myeloma/plasma cell leukemia with I(11; 14), standard risk
[17] = MM/plasma cell leukemia, Relapsed with high risk cytogenetics (sample of r32)
[18] = MM/plasma cell leukemia, Relapsed with high risk cytogenetics (sample of r33)
[19] = MM/plasma cell leukemia, Relapsed with high risk cytogenetics (sample of r34)
[20] = MM/plasma cell leukemia, Relapsed with high risk cytogenetics (sample of r38)
[21] = Relapsed splenic MZL (sample of r15)
[22] = Relapsed splenic MZL (sample of r16)
[23] = Relapsed splenic MZL (sample of r18)
[24] = Relapssd splenic MZL (sample of r17)
[25] = Relapsed Peripheral T-cell lymphoma (sample of r30)
[26] = Relapsed Peripheral T-cell lymphoma (sample of r31)

SMILES: C[N+](C)(C)CCO.O=C([O-])c1ccccc1O [CS, choline salicylate]
% viability normalized for respective controls (OCI-Ly1 cells; OCI-Ly1 (DLBCL), 48 hours, KPT-330 0.1-1.0 μM, CS 1-3 mM, single agent or combination): 101%
% viability normalized for respective controls (Hs 578T cells): 87%
% viability normalized for respective controls [1, 10]: 78%
% viability normalized for respective controls [1, 11]: 75%
% viability normalized for respective controls [2, 12]: 65%
% viability normalized for respective controls ([2]; Double expresser): 80%
% viability normalized for respective controls ([2]; Double hit transformed from FL): 71%
% viability normalized for respective controls [2, 13]: 86%
% viability normalized for respective controls [2, 14]: 76%
% viability normalized for respective controls [3]: 88%
% viability normalized for respective controls [4, 15]: 91%
% viability normalized for respective controls ([4]; Relapsed MCL): 68%
% viability normalized for respective controls [5, 16]: 64%
% viability normalized for respective controls [5, 17]: 58%
% viability normalized for respective controls [5, 18]: 90%
% viability normalized for respective controls [5, 19]: 69%
% viability normalized for respective controls [5, 20]: 99%
% viability normalized for respective controls ([6]; Relapsed nodal MZL): 65%
% viability normalized for respective controls [6, 21]: 63%
% viability normalized for respective controls [6, 22]: 71%
% viability normalized for respective controls [6, 23]: 65%
% viability normalized for respective controls [6, 24]: 82%
% viability normalized for respective controls [7, 25]: 64%
% viability normalized for respective controls [7, 26]: 73%
% viability normalized for respective controls [8]: 82%
% viability normalized for respective controls [9]: 79%

IC50 (OCI-Ly1 cells; Homo sapiens, OCI-Ly1, 72 h): 1.8 µM
SMILES: O=C(/C=C\n1cnc(-c2cc(C(F)(F)F)cc(C(F)(F)F)c2)n1)NNc1cnccn1 [KPT-330, (Z)-3-[3-[3,5-bis (trifluoromethyl)phenyl]-1,2,4-triazol-1-yl]-N′-pyrazin-2-ylprop-2-enehydrazide]
% viability normalized for respective controls (Hs 578T cells): 73%
% viability normalized for respective controls [1, 10]: 72%
% viability normalized for respective controls [1, 11]: 99%
% viability normalized for respective controls [2, 12]: 68%
% viability normalized for respective controls ([2]; Double expresser): 74%
% viability normalized for respective controls ([2]; Double hit transformed from FL): 82%
% viability normalized for respective controls [2, 13]: 81%
% viability normalized for respective controls [2, 14]: 63%
% viability normalized for respective controls [3]: 79%
% viability normalized for respective controls [4, 15]: 94%
% viability normalized for respective controls ([4]; Relapsed MCL): 89%
% viability normalized for respective controls [5, 16]: 55%
% viability normalized for respective controls [5, 17]: 79%
% viability normalized for respective controls [5, 18]: 91%
% viability normalized for respective controls [5, 19]: 93%
% viability normalized for respective controls [5, 20]: 96%
% viability normalized for respective controls ([6]; Relapsed nodal MZL): 58%
% viability normalized for respective controls [6, 21]: 55%
% viability normalized for respective controls [6, 22]: 67%
% viability normalized for respective controls [6, 23]: 67%
% viability normalized for respective controls [6, 24]: 70%
% viability normalized for respective controls [7, 25]: 73%
% viability normalized for respective controls [7, 26]: 68%
% viability normalized for respective controls [8]: 70%
% viability normalized for respective controls [9]: 85%
